One assay deals with T1, DNA polymerase β (Rattus norvegicus, UniProt P06766).
T1 construct: made in house; host or cells: E. coli
Kind of assay: Assay 2: inhibitory effect against DNA polymerase β ([3H]-dTTP incorporation). The conditions noted are these: for inhibitory effect against the DNA polymerase β (in words): at the tested concentrations, summary of Table 2; for IC50: recombinant rat DNA polymerase β, 0.05 U, 37° C., 60 minutes. The class given is biochemical. As to the method:
(§1) Each mixture was added with a buffer containing inorganic salts for the enzymatic reaction, [^3H]-labeled dTTP and compounds for reaction containing a template DNA strand, and incubated at 37° C. for 60 minutes.
(§2) After the enzymatic reaction was quenched, the resultant reaction product was fixed on a dedicated filter and subjected to measurement by a liquid scintillation counter. The amount of enzymatically incorporated dTTP was calculated as a radiation dose (cpm) of [^3H]. Note that, each of the sulforhamnosylacylglycerol derivatives is a mixture of the S- and R-configurations with respect to an absolute configuration of the carbon of the 2-position of the glycerol moiety.
An assay on inhibitory effect against a DNA polymerase β was carried out in the following manner.
The same procedure as in Assay 1 was carried out except that 0.05 U of DNA polymerase β was used in place of the DNA polymerase α. The DNA polymerase β was prepared from recombinant E. coli introduced with rat DNA polymerase β gene. In this way, the inhibitory effect of test compounds (SRAG1, SRAG2 and SRAG3 shown in Table 1 and dissolved in DMSO) against DNA polymerase : was assayed.

The test system of a further assay is Colon cancer cells DLD-1. Kind of assay: Assay 3: anticancer activity against cultured colon cancer cells (MTT assay). The class given is cell-based. The settings on record: Homo sapiens, DLD-1, 48 hour cultivation. On the procedure:
An assay on anticancer activity against cultured colon cancer cells was carried out in the following manner.
(§3) Colon cancer cells DLD-1 were maintained and subcultured in RPMI 1640 medium (containing 10% calf serum). Each of the test compounds (SRAG1 to SRAG3 shown in Table 1) was suspended and diluted in the medium, and then the cancer cells were cultivated together with the medium in a 96-well plate at 3×10^3 cells/well. After 48 hour cultivation, the MTT assay (Mosmann, T: Journal of Immunological Method, 65, 55-63 (1983)) was carried out to compare survival rates.
(Formazan colour is commonly taken as a measure of viable cells.)

For another assay, the target named is T2, DNA polymerase α (Bos taurus, UniProt A0AAA9TD94).
T2 construct: from tissue; host or cells: bovine thymus
T2 sequence (A0AAA9TD94 1-1441): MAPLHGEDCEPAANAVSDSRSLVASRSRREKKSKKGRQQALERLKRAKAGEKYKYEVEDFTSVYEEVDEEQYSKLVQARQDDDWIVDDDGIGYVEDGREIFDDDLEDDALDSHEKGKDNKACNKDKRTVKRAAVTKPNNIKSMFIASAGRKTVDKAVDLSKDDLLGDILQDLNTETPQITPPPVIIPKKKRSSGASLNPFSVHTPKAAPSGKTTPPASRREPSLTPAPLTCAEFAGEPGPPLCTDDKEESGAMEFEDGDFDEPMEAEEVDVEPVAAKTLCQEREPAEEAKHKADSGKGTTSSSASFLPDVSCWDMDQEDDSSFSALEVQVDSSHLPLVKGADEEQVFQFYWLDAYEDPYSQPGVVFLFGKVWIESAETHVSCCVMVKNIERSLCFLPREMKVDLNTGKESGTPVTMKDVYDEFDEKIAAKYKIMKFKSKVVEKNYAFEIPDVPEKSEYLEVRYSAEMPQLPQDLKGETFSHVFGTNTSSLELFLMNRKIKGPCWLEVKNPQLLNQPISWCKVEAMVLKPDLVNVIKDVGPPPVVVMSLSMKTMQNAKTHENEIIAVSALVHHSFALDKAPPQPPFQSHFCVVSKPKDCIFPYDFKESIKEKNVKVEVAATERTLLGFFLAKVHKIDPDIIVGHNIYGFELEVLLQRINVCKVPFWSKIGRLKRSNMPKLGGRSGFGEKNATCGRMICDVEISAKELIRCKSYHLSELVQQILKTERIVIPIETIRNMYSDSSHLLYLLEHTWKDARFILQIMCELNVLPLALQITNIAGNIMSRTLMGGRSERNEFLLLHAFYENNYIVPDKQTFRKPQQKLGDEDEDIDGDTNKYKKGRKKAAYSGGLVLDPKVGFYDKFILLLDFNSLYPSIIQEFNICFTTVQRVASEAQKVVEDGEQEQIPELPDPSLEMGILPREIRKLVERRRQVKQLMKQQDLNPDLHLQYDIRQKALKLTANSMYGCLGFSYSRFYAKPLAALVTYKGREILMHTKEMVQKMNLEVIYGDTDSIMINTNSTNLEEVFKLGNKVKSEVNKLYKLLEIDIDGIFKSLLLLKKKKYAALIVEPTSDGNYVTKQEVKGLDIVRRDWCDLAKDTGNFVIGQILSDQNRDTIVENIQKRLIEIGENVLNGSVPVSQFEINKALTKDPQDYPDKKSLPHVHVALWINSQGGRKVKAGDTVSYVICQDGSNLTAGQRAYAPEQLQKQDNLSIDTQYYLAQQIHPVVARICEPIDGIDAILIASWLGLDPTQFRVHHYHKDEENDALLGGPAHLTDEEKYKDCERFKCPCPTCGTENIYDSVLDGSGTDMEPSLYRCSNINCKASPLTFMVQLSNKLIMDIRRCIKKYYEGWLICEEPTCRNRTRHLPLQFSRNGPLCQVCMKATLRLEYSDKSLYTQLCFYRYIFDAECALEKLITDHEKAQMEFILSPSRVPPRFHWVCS
Description: Assay 1: inhibitory effect against DNA polymerase α ([3H]-dTTP incorporation). The conditions noted are these: DNA polymerase α from bovine thymus, 0.05 U, 37° C., 60 minutes. The assay is classed as biochemical. On the procedure: An assay on inhibitory effect against a DNA polymerase α was carried out in the following manner.
as §1, §2

For assay [1], the system named is gastric cancer cells NUGC-3. Kind of assay: Assay 4: anticancer activity against cultured gastric cancer cells (MTT assay). The assay is classed as cell-based. The conditions noted are these: Homo sapiens, NUGC-3, 48 hour cultivation. As to the method:
as §3
An assay on anticancer activity against cultured gastric cancer cells was carried out in the same manner as in the assay 3 except that gastric cancer cells NUGC-3 were used instead of the colon cancer cells DLD-1.

Molecules are shown by their SMILES. Structures can show the parent of a compound that is named as a salt.

Broadly, the IC50 is the midpoint of a concentration-inhibition curve. On to `CCCCCCCCCCCCCC(=O)OCC(O)CO[C@H]1O[C@H](CS(=O)(=O)[O-])[C@@H](O)[C@H](O)[C@@H]1O.[Na+]` (stereo partly drawn) [SRAG1, 3-O-(6-deoxy-6-sulfo-α-D-mannopyranosyl)-1-O-myristoyl-glycerol sodium salt], for which the “inhibitory effect against the DNA polymerase β (in words)” value (from here on “inhibitory effect”) against DNA polymerase β is listed as “did not show an inhibitory effect”. The IC50 at DNA polymerase β is over 90.8 µM; in the assay with Colon cancer cells DLD-1, 42.5 µg/mL; against DNA polymerase α, 23.6 µM; in assay [1], 45 µg/mL.

For `CCCCCCCCCCCCCCCC(=O)OCC(O)CO[C@H]1O[C@H](CS(=O)(=O)[O-])[C@@H](O)[C@H](O)[C@@H]1O.[Na+]` (stereo partly drawn) [SRAG2, 3-O-(6-deoxy-6-sulfo-α-D-mannopyranosyl)-1-O-palmitoyl-glycerol sodium salt], the “inhibitory effect” value at DNA polymerase β is listed as “significant inhibitory activity”. Further, the IC50 is 28.7 µM at DNA polymerase β, 30 µg/mL in the assay with Colon cancer cells DLD-1, 5.7 µM against DNA polymerase α and 40 µg/mL in assay [1].

As to `CCCCCCCCCCCCCCCCCC(=O)OCC(O)CO[C@H]1O[C@H](CS(=O)(=O)[O-])[C@@H](O)[C@H](O)[C@@H]1O.[Na+]` (stereo partly drawn) [SRAG3, 3-O-(6-deoxy-6-sulfo-α-D-mannopyranosyl)-1-O-stearoyl-glycerol sodium salt], the “inhibitory effect” value at DNA polymerase β was “significant inhibitory activity”. The 50% inhibitory concentration (IC50) is 11.1 µM on DNA polymerase β, 14 µg/mL in the assay on Colon cancer cells DLD-1, 3.3 µM against DNA polymerase α and 28.5 µg/mL in assay [1].

In the case of `CCCCCCCCCCCCCCCCCC(=O)OCC(CO[C@H]1O[C@H](CS(=O)(=O)O)[C@@H](O)[C@H](O)[C@@H]1O)OC(=O)CCCCCCCCCCCCCCCCC` (stereo partly drawn) [SRAG4, 3-O-(6-deoxy-6-sulfo-α-D-mannopyranosyl)-1,2-di-O-stearoyl-glycerol sodium salt], the IC50 against DNA polymerase α is 0.115 µM.

Values taken from US6759522B2, “Sulforhamnosylacyglycerol derivatives and use thereof as medicaments” (Toyo Suisan Kaisha, Ltd., priority 1999, dated 2004).
